Assay results taken from article PMC7674464, “Effect of pH on the influenza fusion peptide properties unveiled by constant-pH molecular dynamics simulations combined with experiment” (Scientific Reports, 2020).
Like-named read-outs stand apart in the source and are kept apart here. Where no end group is shown, it is not given here.

Columns and labels:
[1] = 16000 nM, pH 7.4
[2] = not given; remark: listed apart in the source
Asp19 = Asp19 (UniProt position 362, WTGMIDGWYGY); assay: NMR; settings: micelle-bound peptide with lysine tail; cited from earlier work
Glu11 = Glu11 (UniProt position 354, IAGFIEGGWTG); assay: NMR; settings: micelle-bound peptide with lysine tail; cited from earlier work
Nterm1 = Nterm1 (UniProt position 344, SIQSRGLFGAI); assay: NMR; settings: micelle-bound peptide with lysine tail; cited from earlier work

Substance | percentage of lipid mixing [1] | partition coefficient (Kp) between the aqueous and lipid phases (pH 5) | partition coefficient (Kp) between the aqueous and lipid phases (pH 7.4) | amide I band peak position [2] | pKa (Asp19) | pKa (Glu11) | pKa (Nterm1)
GLFGAIAGFIEGGWTGMIDGWYGS [influenza fusion peptide] | 23.9 ± 1.8% | (1.0 ± 0.1) × 10^4 | (2.9 ± 0.4) × 10^4 | 1660 cm⁻¹ | – | – | –
Influenza hemagglutinin HA2 fusion peptide (HAfp23) with C-terminal hydrophilic lysine tail (Influenza A virus (subtype H1; strain not stated)) | – | – | – | – | 4.35 | 5.31 | 8.8
